Experimental data as given in ChEMBL document CHEMBL1201862, “PubChem BioAssay data set” (2004).
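Results reflect a 48-hour exposure of cells in 96-well plates to compound at five concentrations. The concentration for 50% growth inhibition is given as GI50.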 Active and inactive are the calls of the source. No stated cut-off is given here; in the data, active = GI50 up to about 1.1 µM and inactive = higher.

Experiments:
Assay in all cases: NCI tumour cell line growth inhibition, 48 h
HCT-116 = tested on: HCT-116
SN12C = tested on: SN12C
UACC-62 = tested on: UACC-62
IGROV-1 = tested on: IGROV-1
K562 = tested on: K562
MOLT-4 = tested on: MOLT-4
SF-295 = tested on: SF-295
OVCAR-3 = tested on: OVCAR-3
CAKI-1 = tested on: CAKI-1
SF-268 = tested on: SF-268
NCI-H460 = tested on: NCI-H460
COLO 205 = tested on: COLO 205
OVCAR-8 = tested on: OVCAR-8
SK-MEL-28 = tested on: SK-MEL-28
UO-31 = tested on: UO-31
HCT-15 = tested on: HCT-15
RXF 393 = tested on: RXF 393
U-251 = tested on: U-251
A549 = tested on: A549
HL-60 = tested on: HL-60

Measured: GI50

c1ccc(CN2CCC3(CC2)SSC2(CCN(Cc4ccccc4)CC2)SS3)cc1
inactive: HCT-116 > 100 µM | SN12C > 100 µM | UACC-62 > 100 µM | IGROV-1 > 100 µM | K562 > 100 µM | MOLT-4 > 100 µM | SF-295 > 100 µM | OVCAR-3 > 100 µM | CAKI-1 > 100 µM | SF-268 > 100 µM | NCI-H460 > 100 µM | COLO 205 64 µM | OVCAR-8 > 100 µM | SK-MEL-28 34.9 µM | UO-31 > 100 µM | RXF 393 > 100 µM | U-251 > 100 µM | A549 > 100 µM
> 100 µM: HCT-15

O=C(NN1C(=O)C(Cl)C1c1cccc([N+](=O)[O-])c1)c1ccccc1O (stereo not drawn)
inactive: HCT-116 > 100 µM | SN12C > 100 µM | UACC-62 > 100 µM | IGROV-1 76.4 µM | K562 > 100 µM | MOLT-4 > 100 µM | SF-295 > 100 µM | OVCAR-3 > 100 µM | HL-60 > 100 µM | SF-268 > 100 µM | NCI-H460 > 100 µM | COLO 205 > 100 µM | OVCAR-8 > 100 µM | SK-MEL-28 > 100 µM | UO-31 71.9 µM | RXF 393 > 100 µM | U-251 > 100 µM | A549 > 100 µM

O=C(Nc1ccc([N+](=O)[O-])cc1[N+](=O)[O-])C(=O)C(C(=O)c1ccc2ccccc2c1)C1OC(=O)c2ccccc21 (stereo not drawn)
15.9 µM: HCT-15
inactive: HCT-116 17.6 µM | SN12C 17.8 µM | UACC-62 16.6 µM | IGROV-1 19.8 µM | K562 14 µM | MOLT-4 2.95 µM | SF-295 13.5 µM | CAKI-1 21.7 µM | HL-60 12.3 µM | SF-268 8.89 µM | NCI-H460 13.2 µM | COLO 205 15.8 µM | OVCAR-8 10 µM | SK-MEL-28 20 µM | UO-31 14 µM | RXF 393 12 µM | U-251 4.33 µM | A549 25.5 µM

COc1ccccc1N1C(Cl)C(=O)C1c1c[nH]c2ccccc12 (stereo not drawn)
inactive: HCT-116 > 100 µM | SN12C > 100 µM | UACC-62 > 100 µM | IGROV-1 > 100 µM | K562 > 100 µM | MOLT-4 > 100 µM | SF-295 > 100 µM | OVCAR-3 > 100 µM | HL-60 > 100 µM | SF-268 > 100 µM | NCI-H460 > 100 µM | COLO 205 > 100 µM | OVCAR-8 > 100 µM | SK-MEL-28 > 100 µM | UO-31 > 100 µM | RXF 393 > 100 µM | U-251 > 100 µM | A549 > 100 µM

Cc1c2[nH]c3ccc(Br)cc3c2c(C)c2nccc(O)c12
15.1 µM: HCT-15
inactive: HCT-116 13.8 µM | SN12C 13.2 µM | K562 17 µM | MOLT-4 5.57 µM | SF-295 14.5 µM | OVCAR-3 14.6 µM | CAKI-1 13.8 µM | HL-60 12.1 µM | SF-268 14.8 µM | NCI-H460 6.9 µM | COLO 205 12.5 µM | OVCAR-8 20.7 µM | SK-MEL-28 16.9 µM | UO-31 11.1 µM | A549 10.2 µM

CC(=O)O[C@H]1[C@@H](OC(C)=O)C(C)(C)/C=C/[C@H](C)C(=O)[C@@]2(OC(C)=O)C[C@@](C)(OC(C)=O)[C@H](OC(C)=O)[C@@H]2[C@H]2OC(=O)CC[C@@]2(OC(=O)c2ccccc2)[C@@H]1OCC(C)C
inactive: HCT-116 19.5 µM | SN12C > 100 µM | UACC-62 46.5 µM | IGROV-1 68.5 µM | K562 4.51 µM | MOLT-4 4.76 µM | SF-295 3.63 µM | OVCAR-3 > 100 µM | CAKI-1 8.73 µM | HL-60 4.11 µM | SF-268 > 100 µM | NCI-H460 4.1 µM | COLO 205 5.15 µM | OVCAR-8 > 100 µM | UO-31 22.2 µM | RXF 393 46.7 µM | U-251 80.4 µM
> 100 µM: HCT-15
